In patent US9670250B2, “Alpha-helical peptidomimetic inhibitors and methods using same” (The Trustees of the University of Pennsylvania, priority 2012, dated 2017):
Residues, ends and D or L forms follow the SMILES beside them.

What was measured:
Cathepsin S = Cathepsin S (Homo sapiens, UniProt P25774); assay: Ki (µM) (Cathepsin S)
From the text: (§1) Table printed on a drawing sheet, FIGURES 2A & 2B
Head of the field: Ki (µM) (Cathepsin S)
(§2) The patent's description of the figure: FIG. 2, comprising FIGS. 2A-2C, illustrate inhibitors of the present invention. FIG. 2A depicts a list of parent and lead cysteine protease inhibitors and their Ki values The bold ‘C’ represents the cysteine linked at the i,i+4 position. […] FIG. 2B is a schematic representation of linked helical peptidomimetics. α,α′-Dibromo-meta-xylene is the i,i+4 linker. FIG. 2C illustrates circular dichroism spectra of unlinked (middle) and linked (right) peptidomimetics (key at left) in 50 mM Tris-HCl buffer (pH 7.5) and 40% trifluoroethanol (TFE). α-Helical stabilization substantially increases helicity in solution.
(§3) First copying reader's note: Bold C residues and underlined sequences mark the linked (stapled) peptides; the meanings of N/A and NT are not printed on the sheet.
Where the first naming reader finds the target: head: Ki (µM) (Cathepsin S)

Cathepsin K = Cathepsin K (Homo sapiens, UniProt P43235); assay: Ki (µM) (Cathepsin K)
Cathepsin K, sequence (P43235 115-329 limits assumed): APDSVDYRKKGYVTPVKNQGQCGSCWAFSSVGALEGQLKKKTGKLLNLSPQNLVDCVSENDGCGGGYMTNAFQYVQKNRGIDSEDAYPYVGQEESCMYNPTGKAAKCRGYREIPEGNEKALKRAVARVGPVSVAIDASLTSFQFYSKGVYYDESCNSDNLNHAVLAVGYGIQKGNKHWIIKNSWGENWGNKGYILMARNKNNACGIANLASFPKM
From the text: as §1
Head of the field: Ki (µM) (Cathepsin K)
as §2, §3
Where the first naming reader finds the target: head: Ki (µM) (Cathepsin K)

Cathepsin S, sequence (P25774 115-331 limits assumed): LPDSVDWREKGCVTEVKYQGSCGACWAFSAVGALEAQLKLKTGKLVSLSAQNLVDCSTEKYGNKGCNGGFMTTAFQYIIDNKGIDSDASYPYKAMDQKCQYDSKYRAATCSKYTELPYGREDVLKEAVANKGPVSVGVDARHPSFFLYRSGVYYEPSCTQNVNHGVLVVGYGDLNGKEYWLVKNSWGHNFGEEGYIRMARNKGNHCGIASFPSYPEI

SMILES | Ki (Cathepsin S) [µM] | Ki (Cathepsin K) [µM]
CSCC[C@H](NC(=O)[C@H](CC(C)C)NC(=O)[C@H](CO)NC(=O)[C@H](CC(N)=O)NC(=O)[C@H](CCSC)NC(=O)[C@@H](NC(=O)[C@H](CCC(=O)O)NC(=O)[C@H](CCC(=O)O)NC(=O)[C@H](CO)NC(=O)[C@@H](N)[C@@H](C)O)C(C)C)C(=O)N[C@@H](CO)C(=O)N[C@@H](CO)C(=O)O [SEQ ID NO:14, TSEEVMNSLMSS] (H-TSEEVMNSLMSS-OH; N-terminus and C-terminus assumed) | > 100 | –
CSCC[C@H](NC(=O)[C@H](CCCCN)NC(=O)[C@H](CCC(N)=O)NC(=O)[C@@H](NC(=O)[C@@H](NC(=O)[C@H](CCC(=O)O)NC(=O)[C@H](CCC(=O)O)NC(=O)[C@@H](N)CO)C(C)C)C(C)C)C(=O)N[C@H](C(=O)NCC(=O)N[C@@H](CC(C)C)C(=O)O)[C@@H](C)O [SEQ ID NO:32, SEEVVQKMTGL] (H-SEEVVQKMTGL-OH; N-terminus and C-terminus assumed) | – | > 100
